One test concerns the target JMJD2C (Homo sapiens (Human), UniProt Q9H3R0). Kind of test: In vitro enzyme inhibition assay for JMJD2C activity (TR-FRET). In kind it is biochemical. As for the experimental part:
This assay determines the ability of a test compound to inhibit JMJD2C demethylase activity. Baculovirus expressed JMJD2C (GenBank Accession #BC143571, AA 2-372) was purchased from BPS Bioscience (Cat#50105).
The ability of test compounds to inhibit the activity of JMJD2C was determined in 384-well plate format under the following reaction conditions: 0.3 nM JMJD2C, 300 nM H3K9me3-biotin labeled peptide (Anaspec cat #64360), 2 μM alpha-ketoglutaric acid in assay buffer of 50 mM HEPES, pH7.3, 0.005% Brij35, 0.5 mM TCEP, 0.2 mg/ml BSA, 50 μM sodium L-ascorbate, and 2 μM ammonium iron(II) sulfate. Reaction product was determined quantitatively by TR-FRET after the addition of detection reagent Phycolink Streptavidin-allophycocyanin (Prozyme) and Europium-anti-di-methylated histone H3 lysine 9 (H3K9me2) antibody (PerkinElmer) in the presence of 5 mM EDTA in LANCE detection buffer (PerkinElmer) at a final concentration of 50 nM and 1 nM, respectively.
The assay reaction was initiated by the following: 2 μl of the mixture of 900 nM H3K9me3-biotin labeled peptide and 6 μM alpha-ketoglutaric acid with 2 μl of 11-point serial diluted inhibitor in 3% DMSO were added to each well of the plate, followed by the addition of 2 μl of 0.9 nM JMJD2C to initiate the reaction. The reaction mixture was incubated at room temperature for 30 minutes, and terminated by the addition of 6 μl of 5 mM EDTA in LANCE detection buffer containing 100 nM Phycolink Streptavidin-allophycocyanin and 2 nM Europium-anti-H3K9me2 antibody. Plates were read by EnVisionMultilabel Reader in TR-FRET mode (excitation at 320 nm, emission at 615 nm and 665 nm) after 1 hour incubation at room temperature. A ratio was calculated (665/615) for each well and fitted to determine inhibition constant (IC50).

Test [1] concerns KYSE-150 esophageal carcinoma cell line. Kind of test: In vitro cell-based assay: cellular proliferation via BrdU incorporation (ELISA). Set-up: species or system human. Conditions: Homo sapiens, KYSE-150, 168 hours compound incubation. As for the experimental part: The primary cellular assay for JMJD2C inhibition is an assay which measures cellular proliferation via Bromodeoxyuridine (BrdU) incorporation after 168 hours of compound incubation. Cell lines tested include the JMJD2C gene amplified cell line KYSE-150. This is a quantitative ELISA assay measuring DNA incorporation of BrdU during S-phase as a direct readout of cellular proliferation.
Assay Principle: This is a colorimetric immunoassay for the quantification of cell proliferation. Cells treated for 168 hours with test compounds are assayed for their ability to go through S-phase as a measure of their proliferative potential.
Assay Method: The human KYSE-150 (SMAD4 mut, TP53 mut) esophageal carcinoma cell line was seeded at 2,000 cells/well on a 96-well tissue culture treated plate. After an overnight incubation, cells were treated with compound in an 11-point dilution series with final concentrations ranging from 100 μM to 2 nM. Cells were then incubated in the presence of compound for 168 hours. After compound incubation the cells were assayed using a BrdU Cell Proliferation ELISA (Roche). The cells were first incubated with BrdU labeling reagent for 2 hours. After 2 hours, the BrdU incorporated cells were fixed and denatured, probed with an anti-BrdU-Peroxidase antibody for 1.5 hours and washed. Finally, a tetramethylbenzidine peroxidase substrate was added to each well for 15 minutes followed by a H2SO4 stop solution. The plate was read at 450 nm, and the raw optical density data was transferred into XLFit (IDBS) for IC50 calculation using the formula: fit=(D+((Vmax*(x^n))/((x^n)+(Km^n))))

JMJD2C, sequence (Q9H3R0 2-372): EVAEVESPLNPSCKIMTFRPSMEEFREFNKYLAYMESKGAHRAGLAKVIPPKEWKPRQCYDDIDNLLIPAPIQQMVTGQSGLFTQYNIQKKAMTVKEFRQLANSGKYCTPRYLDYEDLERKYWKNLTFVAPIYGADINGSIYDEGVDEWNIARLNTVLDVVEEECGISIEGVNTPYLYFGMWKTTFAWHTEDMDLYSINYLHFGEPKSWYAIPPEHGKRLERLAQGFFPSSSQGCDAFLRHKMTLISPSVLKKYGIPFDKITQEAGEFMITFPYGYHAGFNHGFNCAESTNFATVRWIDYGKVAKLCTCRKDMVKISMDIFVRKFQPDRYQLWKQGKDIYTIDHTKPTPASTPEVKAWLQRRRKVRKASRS

`CCN(c1ccccc1)c1ccc2c(c1)CCC[C@H]2CNc1cnccc1C(=O)O` [Example 10, 3-({[(1R)-6-[ethyl(phenyl)amino]-1,2,3,4-tetrahydronaphthalen-1-yl]methyl}amino)pyridine-4-carboxylic acid]: the results for the concentration for half-maximal inhibition (IC50) (against JMJD2C; in test [1]) were 100 to 1000 nM and no more than 100 nM, respectively.

`CN(c1cccnc1)c1ccc2c(c1)CCC[C@H]2CNc1cnccc1C(=O)O` [Example 12, 3-({[(1R)-6-[methyl(pyridin-3-yl)amino]-1,2,3,4-tetrahydronaphthalen-1-yl]methyl}amino)pyridine-4-carboxylic acid]: the results for the IC50 (at JMJD2C; in test [1]) were no more than 100 nM and 100 to 1000 nM, respectively.

For the compound `COc1ccc(N(C)c2ccc3c(c2)CCC[C@H]3CNc2cnccc2C(=O)O)cn1` [Example 13, 3-({[(1R)-6-[(6-methoxypyridin-3-yl)(methyl)amino]-1,2,3,4-tetrahydronaphthalen-1-yl]methyl}amino)pyridine-4-carboxylic acid], the IC50 (at JMJD2C; in test [1]) was 100 to 1000 nM each time.

For `O=C(O)c1ccncc1NCC1CCOc2cc(Br)ccc21` (stereo not drawn) [Example 14, 3-{[(7-bromo-3,4-dihydro-2H-1-benzopyran-4-yl)methyl]amino}pyridine-4-carboxylic acid], the values for the IC50 (against JMJD2C; in test [1]) were 100 to 1000 nM and greater than 10000 nM, respectively.

`O=C(O)c1ccncc1NCC1CCOc2cc(Nc3ccccc3)ccc21` (stereo not drawn) [Example 15, 3-({[7-(phenylamino)-3,4-dihydro-2H-1-benzopyran-4-yl]methyl}amino)pyridine-4-carboxylic acid]: the IC50 at JMJD2C lay within 100 to 1000 nM; in test [1] it was 1000 to 10000 nM.

Take `CN(c1ccc2c(c1)OCC[C@H]2CNc1cnccc1C(=O)O)c1ccccc1F` [Example 19, 3-({[(4R)-7-[(2-fluorophenyl)(methyl)amino]-3,4-dihydro-2H-1-benzopyran-4-yl]methyl}amino)pyridine-4-carboxylic acid]: the IC50 against JMJD2C was 100 to 1000 nM; in test [1], no more than 100 nM.

Turning to `O=C(O)c1ccncc1NCC1CCOc2cc(-c3ccc(C(F)(F)F)cc3)ccc21` (stereo not drawn) [Example 27, 3-[({7-[4-(trifluoromethyl)phenyl]-3,4-dihydro-2H-1-benzopyran-4-yl}methyl)amino]pyridine-4-carboxylic acid], the 50% inhibitory concentration (IC50) (against JMJD2C; in test [1]) was 1000 to 10000 nM in each case.

With `Cc1cccc(-c2ccc3c(c2)OCC[C@H]3CNc2cnccc2C(=O)O)c1` [Example 30, 3-({[(4R)-7-(3-methylphenyl)-3,4-dihydro-2H-1-benzopyran-4-yl]methyl}amino)pyridine-4-carboxylic acid], the IC50 (against JMJD2C; in test [1]) was 100 to 1000 nM each time.

Take `Cc1ccc(-c2ccc3c(c2)OCC[C@H]3CNc2cnccc2C(=O)O)cc1` [Example 32, 3-({[(4R)-7-(4-methylphenyl)-3,4-dihydro-2H-1-benzopyran-4-yl]methyl}amino)pyridine-4-carboxylic acid]: the IC50 was in the range of 100 to 1000 nM against JMJD2C and 1000 to 10000 nM in test [1].

Consider `CC(C)C#Cc1ccc2c(c1)OCCC2CNc1cnccc1C(=O)O` (stereo not drawn) [Example 38, 3-({[7-(3-methylbut-1-yn-1-yl)-3,4-dihydro-2H-1-benzopyran-4-yl]methyl}amino)pyridine-4-carboxylic acid], for which the figures for the IC50 (at JMJD2C; in test [1]) were 100 to 1000 nM and greater than 10000 nM, respectively.

For the compound `Cc1c(F)cccc1-c1ccc2c(c1)OCC[C@H]2CNc1cnccc1C(=O)O` [Example 42, 3-({[(4R)-7-(3-fluoro-2-methylphenyl)-3,4-dihydro-2H-1-benzopyran-4-yl]methyl}amino)pyridine-4-carboxylic acid], the IC50 (on JMJD2C; in test [1]) was 100 to 1000 nM throughout.

As for `Cc1ccc(F)cc1-c1ccc2c(c1)OCC[C@H]2CNc1cnccc1C(=O)O` [Example 43, 3-({[(4R)-7-(5-fluoro-2-methylphenyl)-3,4-dihydro-2H-1-benzopyran-4-yl]methyl}amino)pyridine-4-carboxylic acid], the half-maximal inhibitory concentration (IC50) at JMJD2C is 100 to 1000 nM; in test [1], no more than 100 nM.

Turning to `O=C(O)c1ccncc1NC[C@@H]1CCOc2cc(-c3cccc(F)c3Cl)ccc21` [Example 44, 3-({[(4R)-7-(2-chloro-3-fluorophenyl)-3,4-dihydro-2H-1-benzopyran-4-yl]methyl}amino)pyridine-4-carboxylic acid], the concentration for half-maximal inhibition (IC50) (against JMJD2C; in test [1]) was 100 to 1000 nM throughout.

As to `O=C(O)c1ccncc1NC[C@@H]1CCOc2cc(-c3cc(F)ccc3Cl)ccc21` [Example 45, 3-({[(4R)-7-(2-chloro-5-fluorophenyl)-3,4-dihydro-2H-1-benzopyran-4-yl]methyl}amino)pyridine-4-carboxylic acid], the IC50 (on JMJD2C; in test [1]) was 100 to 1000 nM throughout.

With `O=C(O)c1ccncc1NC[C@@H]1CCOc2cc(-c3ccccc3C(F)(F)F)ccc21` [Example 46, 3-({[(4R)-7-[2-(trifluoromethyl)phenyl]-3,4-dihydro-2H-1-benzopyran-4-yl]methyl}amino)pyridine-4-carboxylic acid], the 50% inhibitory concentration (IC50) is 100 to 1000 nM against JMJD2C and no more than 100 nM in test [1].

Turning to `O=C(O)c1ccncc1NC[C@@H]1CCOc2cc(Oc3ccccc3)ccc21` [Example 48, 3-({[(4R)-7-phenoxy-3,4-dihydro-2H-1-benzopyran-4-yl]methyl}amino)pyridine-4-carboxylic acid], the half-inhibitory concentration (IC50) against JMJD2C is 100 to 1000 nM; in test [1] it was 1000 to 10000 nM.

As for `O=C(O)c1ccncc1NCC1CCOc2cc(Sc3cccs3)ccc21` (stereo not drawn) [Example 49, 3-({[7-(thiophen-2-ylsulfanyl)-3,4-dihydro-2H-1-benzopyran-4-yl]methyl}amino)pyridine-4-carboxylic acid], the IC50 on JMJD2C lay in the range of 100 to 1000 nM; in test [1] it was 1000 to 10000 nM.

On to `Cc1ccccc1Sc1ccc2c(c1)OCC[C@H]2CNc1cnccc1C(=O)O` [Example 51, 3-({[(4R)-7-[(2-methylphenyl)sulfanyl]-3,4-dihydro-2H-1-benzopyran-4-yl]methyl}amino)pyridine-4-carboxylic acid], for which the IC50 against JMJD2C was 100 to 1000 nM; in test [1] it was 1000 to 10000 nM.

Consider `O=C(O)c1ccncc1NC[C@@H]1CCOc2cc(Sc3cccc(F)c3)ccc21` [Example 53, 3-({[(4R)-7-[(3-fluorophenyl)sulfanyl]-3,4-dihydro-2H-1-benzopyran-4-yl]methyl}amino)pyridine-4-carboxylic acid], for which the 50% inhibitory concentration (IC50) (at JMJD2C; in test [1]) was 100 to 1000 nM throughout.

`Cc1cccc(Oc2ccc3c(c2)CCCC3CNc2cnccc2C(=O)O)n1` (stereo not drawn) [Example 56, 3-[({6-[(6-methylpyridin-2-yl)oxy]-1,2,3,4-tetrahydronaphthalen-1-yl}methyl)amino]pyridine-4-carboxylic acid]: the IC50 on JMJD2C was in the range of 100 to 1000 nM; in test [1], 1000 to 10000 nM.

Take `Cc1ccccc1Oc1ccc2c(c1)CCC[C@H]2CNc1cnccc1C(=O)O` [Example 58, 3-({[(1R)-6-(2-methylphenoxy)-1,2,3,4-tetrahydronaphthalen-1-yl]methyl}amino)pyridine-4-carboxylic acid]: the figures for the half-maximal inhibitory concentration (IC50) (against JMJD2C; in test [1]) were 100 to 1000 nM and no more than 100 nM, respectively.

`CCCOc1ccc2c(c1)CCCC2CNc1cnccc1C(=O)O` (stereo not drawn) [Example 59, 3-{[(6-propoxy-1,2,3,4-tetrahydronaphthalen-1-yl)methyl]amino}pyridine-4-carboxylic acid]: the IC50 at JMJD2C is 100 to 1000 nM; in test [1] it was 1000 to 10000 nM.

Turning to `O=C(O)c1ccncc1NC[C@@H]1CCCc2cc(OC(F)F)ccc21` [Example 61, 3-({[(1R)-6-(difluoromethoxy)-1,2,3,4-tetrahydronaphthalen-1-yl]methyl}amino)pyridine-4-carboxylic acid], the half-inhibitory concentration (IC50) is 100 to 1000 nM on JMJD2C and 1000 to 10000 nM in test [1].

Regarding `O=C(O)c1ccncc1NCC1CCCc2cc(OCC3CCOCC3)ccc21` (stereo not drawn) [Example 63, 3-({[6-(oxan-4-ylmethoxy)-1,2,3,4-tetrahydronaphthalen-1-yl]methyl}amino)pyridine-4-carboxylic acid], the IC50 on JMJD2C was 100 to 1000 nM; in test [1], greater than 10000 nM.

The values are drawn from US10106534B2 (CELGENE QUANTICEL RESEARCH, INC., priority 2014, dated 2018).
